The text below walks through data of patent US20090312277A1, “Compositions And Methods For Reversing Or Preventing Resistance Of A Cancer Cell To A Cytotoxic Agent” (priority 2004, published 2009).

Peptide text beside a SMILES is read from it. * marks the point of attachment. Cbz = O=C(OCc1ccccc1)*

One data set concerns the target T1, Purified cathepsin L (Homo sapiens, UniProt P07711).
T1 construct: purchased Biomol, Plymouth Meeting, Pa
Nature of the data set: Cathepsin L activity, fluorogenic substrate (CV-Cathepsin L Detection Kit). The format is biochemical. The settings on record: inhibitor 10 μM, 200 ng cathepsin L; positive control 4e+5 AU, negative control 0.75e+5 AU. The protocol: Cathepsin L activity was measured using a commercially available kit according to the manufacturer's procedure (CV-Cathepsin L Detection Kit; Biomol, Plymouth Meeting, Pa.). Purified cathepsin L (Biomol, Plymouth Meeting, Pa.) (200 ng) was incubated with each inhibitor (10 μM) in a 96 well plate for 15 min at room temperature in 100 μl of reaction buffer (100 mM sodium acetate pH 5, 1 mM EDTA (ethylenediaminetetraacetic acid), and 4 mM dithiothreitol). The protease inhibitors tested were: lactacystin and inhibitors of cathepsin L, B, S, and K. 100 μl of a fluorogenic substrate (CV-Cathepsin L Detection Kit; Biomol, Plymouth Meeting, Pa.) were added and incubated for an additional 30 min at room temperature. Fluorescence was measured in a plate reader (Victor Multilabel Counter, Perkin Elmer) at 380 nm excitation and […] emission wavelengths.

The test system of data set [1] is SKN-SH doxorubicin-resistant cells. Nature of the data set: Viable cell count of SKN-SH doxorubicin-resistant cells with other chemotherapeutic agents. The note with it: Homo sapiens, SK-N-SH, 72 h; for viability at 100 µM: read-out: number of viable cells, chemotherapeutic agent alone at 10^−4 M; for viability at 10 µM: read-out: number of viable cells, chemotherapeutic agent alone at 10^−5M; for viability at 1 µM: read-out: number of viable cells, chemotherapeutic agent alone at 10^−6 M; for viability at 0.1 µM: read-out: number of viable cells, chemotherapeutic agent alone at 10^−7M; for viability at 0.01 µM: read-out: number of viable cells, chemotherapeutic agent alone at 10^−8M. The procedure: SHN-SH cells were prepared in the manner described above. […] Viable cells were counted after 72 hours of incubation with the melphalan, etoposide, mitoxantrone, cyclophosphamide, and tamoxifen.

The subject of data set [2] is Doxorubicin resistant human neuroblastoma cells (SKN-SH/R). Nature of the data set: Tumor growth of SKN-SH/R cells injected into nude mice. It counts as in vivo. The protocol: Doxorubicin resistant human neuroblastoma cells (SKN-SH/R) cells grown into 75 cm^2 flasks were harvested by trypsinization and centrifuged to remove trypsin. The pellet was then reconstituted in culture medium at 10^7 cell/ml. On day one, 100 μl (10^6 cells) were injected to the right flank of nude mice (5 per group) and after the tumor became palpable at day 11, mice were assigned to four groups: 1) controls (treated with the vehicle DMSO), 2) Dox. 1.5 mg/kg (treated with doxorubicin alone 1.5 mg/Kg), 3) iCL 30 mg/Kg (treated with cathepsin L inhibitor alone at 30 mg/Kg), and 4) Dox 1.5 mg/Kg+iCL 30 mg/Kg (treated with the combination of doxorubicin 1.5 mg/Kg and cathepsin L inhibitor 30 mg/Kg). Intraperetoneal injections were given on day 11, day 14, and day 17.

For another data set, the system named is SKN-SH/R cells. Nature of the data set: MTT cytotoxicity assay, doxorubicin-resistant neuroblastoma cells. The note with it: Homo sapiens, SK-N-SH, 96 h, read-out: IC50 (concentration at which 50% of cells remained viable) of the cytotoxic agent alone, SKN-SH/R cells, agent alone (control cells), 96 hours, MTT. The format is cell-based. The protocol: (§1) Human neuroblastoma SKN-SH cells (ATCC Cat. No. HTB-11) were cultured in Dulbecco's Modified Eagles Medium (DMEM; Gibco, Grand Island, N.Y.) supplemented with 10% fetal bovine serum (FBS; Sigma-Aldrich, St. Louis, Mo.) at 37° C. in a 95% Air/5% CO2 atmosphere. Resistant cells to doxorubicin (SKN-SH/R) were selected by stepwise exposure to drug concentrations ranging from 10^−9 M through 10^−6 M over a time period of three months. The resulting cell line was subjected to treatment with the doxorubicin alone or in combination with: proteosome inhibitor (Lactacystin), cathepsin B inhibitor (L-3-trans-(Propylcarbamoyl)oxirane-2-carbonyl]-L-isoleucyl-L praline), cathespin L inhibitor (Z-Phe-Tyr(t-Bu)-diazomethylketone), cathespin K inhibitor (1,3-Bis(N-CBZ-Leu-NH)-2-propanonel,3 -Di(N-carbonbenzoyloxy-L-leucyl)amino acetone), or cathespin S inhibitor (Z-Phe-Leu-COCHO.H2O), (all available from Calbiochem-Novabiochem, San Diego) at 10 μM each to determine whether they affect cell response to doxorubicin.
(§2) Cytotoxic activity of doxorubicin and cysteine protease inhibitors were quantitatively determined by a calorimetric assay utilizing 3-(4,5-dimethyl-2-thiazolyl) 2,5-diphenyl tetrazolium bromide (MTT; Sigma-Aldrich, St. Louis, Mo.). […] The optical density of this solution was measured at 570 nm and the percentage of viable cells estimated by comparison with untreated control cells. […]
(In general: Formazan colour is commonly taken as a measure of viable cells.)

The next data set concerns SKN-SH wild type cells. Nature of the data set: MTT cytotoxicity assay, SKN-SH wild type cells. The note with it: Homo sapiens, SK-N-SH, 96 h, read-out: IC50 of the cytotoxic agent alone. The format is cell-based. The procedure:
as §1, §2

Data set [3] relates to drug resistant osteosarcoma cells (Saos2-R). Nature of the data set: Cell count of drug resistant osteosarcoma cells after siRNA or inhibitor and doxorubicin. The format is cell-based. From the text: (§3) The human cathepsin L siRNA was designed in our laboratory by studying a cDNA sequence of the human cathepsin L gene (SEQ ID NO: 2). We selected a segment defined by nucleotide numbers 91-111, sent that sequence to a contract laboratory (Dharmacon, Lafayette, Colo.), which synthesized an siRNA molecule based on the aforementioned segment. The segment of the human cathepsin L cDNA we used was: […] (91-111) (SEQ ID NO: 2). On the day before transfection, 3×10^5 drug resistant osteosarcoma cells (Saos2-R) were seeded in 6-well plates and grown in 2.5 ml of DMEM supplemented with 10% FBS. After 24 hours in culture, 25 μl of 20 μM stock solution of siRNA duplexes were transfected into cells with GeneSilencer™ SiRNA Transfection Reagent Kit (Gene Therapy Systems, Inc., San Diego, Calif.). Briefly, adherent cells were transfected in 6 well plates. Cells were about 70% confluent. In one tube, 5 μl of GeneSilencer™ was mixed with 25 μl of serum free medium. In a second tube, 25 μl of siRNA diluent was mixed with […] of serum free medium and 20 μl of siRNA (100 nM). After incubation of tubes 1 and 2, at room temperature for 5 min, they were mixed together into tube 3 and incubated for an additional 5 min. The content of tube 3 was added to the cells in the 6 well plates and incubated for 2 days before the addition of the drug. After 48 hours of incubation, doxorubicin (10^−5 M) was added and maintained in culture for an additional 48 hours before analysis. The cells were counted and protein lysates were used to detect cathepsin L expression by Western blot as described above.

The test system of the next data set is cathepsin L. Description: Cathepsin L expression by Western blot in siRNA-transfected Saos2-R cells. It counts as cell-based, human.
Excerpt: as §3, with “The content of tube 3 was added to the cells in the 6 well plates and incubated for 2 days before the addition of the drug. After 48 hours of incubation, doxorubicin (10^−5 M) was added and maintained in culture for an additional 48 hours before analysis.” left out
(A western blot detects proteins with antibodies after separation by electrophoresis.)

Setting [4] is: cathepsin inhibitor 30 mg/Kg + doxorubicin 1.5 mg/Kg.

T1 sequence (P07711 114-333, species assumed): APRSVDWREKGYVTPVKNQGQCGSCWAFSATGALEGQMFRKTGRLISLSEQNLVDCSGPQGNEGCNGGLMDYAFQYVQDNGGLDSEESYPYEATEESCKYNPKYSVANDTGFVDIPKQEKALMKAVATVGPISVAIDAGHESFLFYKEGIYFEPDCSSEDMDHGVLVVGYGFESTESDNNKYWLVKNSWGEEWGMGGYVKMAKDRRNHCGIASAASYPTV

In the case of `CCCNC(=O)[C@H]1O[C@@H]1C(=O)N[C@H](C(=O)N1CCC[C@H]1C(=O)O)[C@@H](C)CC` (relative stereo) [cathepsin B inhibitor], the “cathepsin L activity (arbitrary units) in presence of inhibitor” value (“cathepsin L activity … of inhibitor” below) on Purified cathepsin L is reported as 3.5e+5 AU.

Consider `CC(C)C[C@H](NC(=O)OCc1ccccc1)C(=O)NCC(=O)CNC(=O)[C@H](CC(C)C)NC(=O)OCc1ccccc1` [cathepsin K inhibitor, 1,3-Bis(N-CBZ-Leu-NH)-2-propanonel,3 -Di(N-carbonbenzoyloxy-L-leucyl)amino acetone], for which the “cathepsin L activity … of inhibitor” value at Purified cathepsin L turned out to be 1e+5 AU.

For `CC(C)CC(NC(=O)C(Cc1ccccc1)NC(=O)OCc1ccccc1)C(=O)C=O.O` (stereo not drawn) [cathepsin S inhibitor, Z-Phe-Leu-COCHO.H2O], at Purified cathepsin L, the “cathepsin L activity … of inhibitor” value is 3e+5 AU.

With `O=P1(N(CCCl)CCCl)NCCCO1` (centres unmarked) [cyclophosphamide], in data set [1], the viability at 100 µM is around 70%, the viability at 10 µM was around 70%, the viability at 1 µM was around 80% and the viability at 0.1 µM is around 95%.

Turning to `COc1cc([C@@H]2c3cc4c(cc3[C@@H](O[C@@H]3O[C@@H]5CO[C@@H](C)O[C@H]5[C@H](O)[C@H]3O)[C@H]3COC(=O)[C@H]23)OCO4)cc(OC)c1O` [etoposide], in data set [1], the viability at 100 µM is around 10%, the viability at 10 µM was around 70%, the viability at 1 µM was around 90% and the viability at 0.1 µM was around 95%.

With `O=C[C@H](Cc1ccc(O)cc1)NC(=O)[C@H](Cc1ccccc1)NC(=O)OCc1ccccc1` [iCL, Z-Phe-Tyr-aldehyde] (Cbz-Phe-Tyr-aldehyde), in data set [2] (setting [4]), the “tumor volume reduction at day 27 greater than doxorubicin alone, co-administered with doxorubicin” value was “about 94%” and the “tumor volume reduction at day 27 greater than the control, co-administered with doxorubicin” value is “about 95%”. For the same compound, the “tumor volume reduction at day 27 greater than the control, inhibitor alone” value in data set [2] (cathepsin inhibitor alone 30 mg/Kg) is “about 60%”. In addition, the “tumor volume reduction at day 27 greater than doxorubicin, inhibitor alone” value in data set [2] (cathepsin inhibitor alone 30 mg/Kg vs doxorubicin 1.5 mg/Kg) is on record as “about 50%”. The “average tumor volume on day 27, combination with doxorubicin” value in data set [2] (nude mice, i.p. on day 11, 14, 17, Dox 1.5 mg/Kg+iCL 30 mg/Kg) was “approximately 100 mm^3”. The “average tumor volume on day 27, single agent” value in data set [2] (nude mice, i.p. on day 11, 14, 17, doxorubicin alone 1.5 mg/Kg or iCL alone 30 mg/Kg) was “approximately 800 mm^3”.

In the case of `CC(=O)N[C@@H](CSC(=O)[C@]1([C@@H](O)C(C)C)NC(=O)[C@H](C)[C@@H]1O)C(=O)O` [lactacystin, Lactacystin], on Purified cathepsin L, the “cathepsin L activity … of inhibitor” value is given as 4.25e+5 AU.

With `N[C@@H](Cc1ccc(N(CCCl)CCCl)cc1)C(=O)O` [melphalan], in data set [1], the viability at 1 µM is around 0%, the viability at 0.1 µM is around 30% and the viability at 0.01 µM is around 60%.

For `O=C1c2c(O)ccc(O)c2C(=O)c2c(NCCNCCO)ccc(NCCNCCO)c21` [mitoxantrone], in data set [1], the viability at 1 µM is around 5%, the viability at 0.1 µM is around 10% and the viability at 0.01 µM is around 40%.

For `CC/C(=C(\c1ccccc1)c1ccc(OCCN(C)C)cc1)c1ccccc1` [tamoxifen], in data set [1], the viability at 10 µM was around 0%, the viability at 1 µM was around 60%, the viability at 0.1 µM was around 60% and the viability at 0.01 µM is around 75%.

On to `CC[C@]1(O)C[C@@H]2CN(CCc3c([nH]c4ccccc34)[C@@](C(=O)OC)(c3cc4c(cc3OC)N(C)[C@H]3[C@@](O)(C(=O)OC)[C@H](OC(C)=O)[C@]5(CC)C=CCN6CC[C@]43[C@@H]65)C2)C1` [vinblastine], for which the IC50 in the data set on SKN-SH/R cells was around 5.62 µM; in the data set with SKN-SH wild type cells, around 100 nM.

With “siRNA: human cathepsin L siRNA based on nucleotides 91-111 of the cathepsin L cDNA (SEQ ID NO: 2), synthesized by Dharmacon (UUCACCUUCCGCUACGUGUUG; listed as RNA, chemistry not given here; listed as Homo sapiens)”, the “inhibition of cell proliferation, combination of siRNA and doxorubicin” value in data set [3] (doxorubicin 10^−5 M) is recorded as around 90%. Further, in data set [3] (doxorubicin 10^−5 M for 48 hours, untreated 1.6e+6 AU), the “cell number, in combination with doxorubicin” value is 1.5e+5 AU. In addition, the “cell number, siRNA transfection alone” value in data set [3] (untreated 1.6e+6 AU) is recorded as 8.0e+5 AU. Besides, the “cathepsin L expression (Western blot), siRNA alone” value in the data set with cathepsin L (Saos2-R cells transfected with siRNA) is “completely diminished”. In addition, the “cathepsin L expression (Western blot), siRNA and doxorubicin” value with cathepsin L (Saos2-R cells transfected with siRNA and treated with doxorubicin 10^−5 M) was “completely diminished”.
